Source: US20220213144A1, “HALOGENATED ANTIMICROBIAL PEPTOIDS” (priority 2019, published 2022)
Square brackets hold non-standard residues; d marks the D form. Peptide text beside a SMILES is read from it. Gly(Nα-4-Cl-benzyl) = O=C(O)CNCc1ccc(Cl)cc1; N(4-F-Bzl)Gly = O=C(O)CNCc1ccc(F)cc1; NBzl(4-I)Gly = O=C(O)CNCc1ccc(I)cc1; Nphe = O=C(O)CNCc1ccccc1; Nlys = NCCCCNCC(=O)O

Assay: Small angle X-ray scattering, critical aggregation concentration from fit
Format: physicochemical
Settings: for critical aggregation concentration (CAC): SAXS fit analysis, bundle model
Experimental: SAXS experiments of the 10-mer peptoids were performed on the automated BM29 bioSAXS beamline at the European Synchrotron Radiation Facility (ESRF) in Grenoble, France. The data was obtained using an energy of 12.5 keV and a detector distance of 2.87 m, covering a q range (q=4π sin(θ/2)/λ), where θ is the scattering angle and λ is the X-ray wavelength) of about 0.0047 Å-1 to 0.5 Å-1. The data set was calibrated to an absolute intensity scale using water as a primary standard. Samples (40 μL) were run through a capillary using the flow mode of the automated sample changer. SAXS data was collected in ten successive frames of 0.5 s each to monitor radiation damage, and the data reduction was done using the standard tool at BM29.
The SAXS experiments on the fully iodinated 6-, 8-, and 12-mers to determine the CAC of the compounds were performed using a Bruker NANOSTAR equipped with a microfocus X-ray source (IμS Cu, Incoatec, Germany) and a VANTEC-2000 detector. Raw scattering data was calibrated to absolute intensity scale using water as a primary standard and radially averaged in order to obtain the 1D scattered intensity profile as a function of the scattering vector, with a wavelength of 1.54 Å.
where fagg is the fraction of peptoid chains aggregated in bundles, allowing for calculation of a CAC from ϕCAC=ϕ−(fagg*ϕ).

[1] = Table 2, 10-mers, SAXS at ESRF, model fit
[2] = Table 3, fully iodinated peptoids, bundle model fit

Row | SMILES | CAC [1] | critical aggregation concentration (CAC) | CAC [2]
1 | NCCCCNCC(=O)N(CC(=O)N(CCCCN)CC(=O)N(CC(=O)N(CCCCN)CC(=O)N(CC(=O)N(CCCCN)CC(=O)N(CC(=O)N(CCCCN)CC(=O)N(CC(N)=O)Cc1ccc(F)cc1)Cc1ccc(F)cc1)Cc1ccc(F)cc1)Cc1ccc(F)cc1)Cc1ccc(F)cc1 [Compound 20] (H-[Nlys][N(4-F-Bzl)Gly][Nlys][N(4-F-Bzl)Gly][Nlys][N(4-F-Bzl)Gly][Nlys][N(4-F-Bzl)Gly][Nlys][N(4-F-Bzl)Gly]-NH2; N-terminus assumed) | >5 mg/mL | – | –
2 | NCCCCNCC(=O)N(CC(=O)N(CCCCN)CC(=O)N(CC(=O)N(CCCCN)CC(=O)N(CC(=O)N(CCCCN)CC(=O)N(CC(=O)N(CCCCN)CC(=O)N(CC(N)=O)Cc1ccc(Cl)cc1)Cc1ccc(Cl)cc1)Cc1ccc(Cl)cc1)Cc1ccc(Cl)cc1)Cc1ccc(Cl)cc1 [Compound 21] (H-[Nlys][Gly(Nα-4-Cl-benzyl)][Nlys][Gly(Nα-4-Cl-benzyl)][Nlys][Gly(Nα-4-Cl-benzyl)][Nlys][Gly(Nα-4-Cl-benzyl)][Nlys][Gly(Nα-4-Cl-benzyl)]-NH2; N-terminus assumed) | >5 mg/mL | – | –
3 | NCCCCNCC(=O)N(CC(=O)N(CCCCN)CC(=O)N(CC(=O)N(CCCCN)CC(=O)N(CC(=O)N(CCCCN)CC(=O)N(CC(=O)N(CCCCN)CC(=O)N(CC(N)=O)Cc1ccc(I)cc1)Cc1ccc(I)cc1)Cc1ccc(I)cc1)Cc1ccc(I)cc1)Cc1ccc(I)cc1 [Compound 23] (H-[Nlys][NBzl(4-I)Gly][Nlys][NBzl(4-I)Gly][Nlys][NBzl(4-I)Gly][Nlys][NBzl(4-I)Gly][Nlys][NBzl(4-I)Gly]-NH2; N-terminus assumed) | 0.4 mg/mL | 0.5 mg/mL | 0.5 mg/mL
4 | NCCCCNCC(=O)N(CC(=O)N(CCCCN)CC(=O)N(CC(=O)N(CCCCN)CC(=O)N(CC(=O)N(CCCCN)CC(=O)N(CC(=O)N(CCCCN)CC(=O)N(CC(N)=O)Cc1ccc(F)cc1)Cc1ccccc1)Cc1ccc(F)cc1)Cc1ccccc1)Cc1ccc(F)cc1 [Compound 24] (H-[Nlys][N(4-F-Bzl)Gly][Nlys][Nphe][Nlys][N(4-F-Bzl)Gly][Nlys][Nphe][Nlys][N(4-F-Bzl)Gly]-NH2) | >5 mg/mL | – | –
5 | NCCCCNCC(=O)N(CC(=O)N(CCCCN)CC(=O)N(CC(=O)N(CCCCN)CC(=O)N(CC(=O)N(CCCCN)CC(=O)N(CC(=O)N(CCCCN)CC(=O)N(CC(N)=O)Cc1ccc(Cl)cc1)Cc1ccccc1)Cc1ccc(Cl)cc1)Cc1ccccc1)Cc1ccc(Cl)cc1 [Compound 25] (H-[Nlys][Gly(Nα-4-Cl-benzyl)][Nlys][Nphe][Nlys][Gly(Nα-4-Cl-benzyl)][Nlys][Nphe][Nlys][Gly(Nα-4-Cl-benzyl)]-NH2) | >5 mg/mL | – | –
6 | NCCCCNCC(=O)N(CC(=O)N(CCCCN)CC(=O)N(CC(=O)N(CCCCN)CC(=O)N(CC(=O)N(CCCCN)CC(=O)N(CC(=O)N(CCCCN)CC(=O)N(CC(N)=O)Cc1ccc(I)cc1)Cc1ccccc1)Cc1ccc(I)cc1)Cc1ccccc1)Cc1ccc(I)cc1 [Compound 27] (H-[Nlys][NBzl(4-I)Gly][Nlys][Nphe][Nlys][NBzl(4-I)Gly][Nlys][Nphe][Nlys][NBzl(4-I)Gly]-NH2) | >5 mg/mL | – | –
7 | NCCCCNCC(=O)N(CC(=O)N(CCCCN)CC(=O)N(CC(=O)N(CCCCN)CC(=O)N(CC(=O)N(CCCCN)CC(=O)N(CC(=O)N(CCCCN)CC(=O)N(CC(=O)N(CCCCN)CC(=O)N(CC(N)=O)Cc1ccc(I)cc1)Cc1ccc(I)cc1)Cc1ccc(I)cc1)Cc1ccc(I)cc1)Cc1ccc(I)cc1)Cc1ccc(I)cc1 [Compound 32] (H-[Nlys][NBzl(4-I)Gly][Nlys][NBzl(4-I)Gly][Nlys][NBzl(4-I)Gly][Nlys][NBzl(4-I)Gly][Nlys][NBzl(4-I)Gly][Nlys][NBzl(4-I)Gly]-NH2; N-terminus assumed) | – | 0.4 mg/mL | 0.4 mg/mL
